The results in this text go back to patent publication US12240811B2, “N-heterocyclic five-membered ring-containing capsid protein assembly inhibitor, pharmaceutical composition and uses thereof” (CHIA TAI TIANQING PHARMACEUTICAL GROUP CO., LTD., priority 2019, dated 2025).

The target in one data set is CYP 3A4 (Homo sapiens (Human), UniProt P08684). Description: CYP450 enzyme inhibition study, CYP 3A4. It counts as in vitro ADME. The note with it: human liver microsomes; read-out: Subtypes IC50 3A4. How it is done: (§1) 500 μL of a final incubation system contains 50 μL of human liver microsomes (protein concentration: 0.2 mg/mL, Corning), 1 μL of mixed CYP450 specific substrates (CYP1A2, CYP 2B6, CYP 2C9, CYP2C19, CYP 2D6, and CYP 3A4), 398 μL PBS buffer (pH7.4), 1 μL specific positive inhibitor (positive control group) or the test compound (formulated with acetonitrile), and 50 μL NADPH+MgCl2. Duplicate incubation systems of 0.5 mL each were formulated for each CYP450 subtype. A total volume of 450 μL of a uniformly mixed solution of the substrate and the enzyme was formulated in each tube, and the solution and NADPH were pre-incubated at 37° C. for 5 minutes, respectively. Then 50 μL of the mixed solution of NADPH+MgCl2 was added for reaction. 50 μL of the reaction solution was taken out at 30 minutes, and the reaction was terminated with 300 μL of ice acetonitrile containing an internal standard. In addition, two control groups of 500 μL each without NADPH were prepared in parallel as a negative control group.
(§2) Sample pre-treatment: To 50 μL of the incubated sample was added 300 μL of ice acetonitrile containing an internal standard, and then precipitated. After vortexing for 5 minutes, the sample was centrifugated (12000 rpm, 4° C.) for 10 minutes. 75 μL of the supernatant was pipetted, and 75 μL of ultrapure water was added thereto for dilution and mixed uniformly. […]

The next data set deals with CYP 2D6 (Homo sapiens (Human), UniProt P10635). Description: CYP450 enzyme inhibition study, CYP 2D6. The format is in vitro ADME. How it is done: as §1, §2
The nature of data set [1]: In vivo pharmacokinetics (PK) study in rats. Also noted: species or system SD rats. The note with it: for half-life: SD, in vivo; for AUC(0-t): read-out: AUC(0-48 h).
Setting [2] is: rat, plasma, SD rats, IV 5 mg/kg.
[3] abbreviates: rat, plasma, SD rats, PO 10 mg/kg.

Usually IC50 stands for the concentration that inhibits the measured activity by half. As a reminder, the half-life is how long it takes for the measured level to halve. The low end stands for rapid decline, the high end for slow decline. What is called AUC(0-inf) is the area under the concentration-time curve extrapolated to infinity. Lower therefore signals low exposure. In general, Cmax refers to the maximum level reached in the sampled fluid or tissue. As a reminder, the clearance is the rate of elimination divided by the concentration. High values mean a high capacity for elimination, low ones a low capacity for elimination.

Each structure is given as a SMILES string. Where two headings read alike, the source gives them in different places.

CYP 2D6, sequence (P10635 whole entry): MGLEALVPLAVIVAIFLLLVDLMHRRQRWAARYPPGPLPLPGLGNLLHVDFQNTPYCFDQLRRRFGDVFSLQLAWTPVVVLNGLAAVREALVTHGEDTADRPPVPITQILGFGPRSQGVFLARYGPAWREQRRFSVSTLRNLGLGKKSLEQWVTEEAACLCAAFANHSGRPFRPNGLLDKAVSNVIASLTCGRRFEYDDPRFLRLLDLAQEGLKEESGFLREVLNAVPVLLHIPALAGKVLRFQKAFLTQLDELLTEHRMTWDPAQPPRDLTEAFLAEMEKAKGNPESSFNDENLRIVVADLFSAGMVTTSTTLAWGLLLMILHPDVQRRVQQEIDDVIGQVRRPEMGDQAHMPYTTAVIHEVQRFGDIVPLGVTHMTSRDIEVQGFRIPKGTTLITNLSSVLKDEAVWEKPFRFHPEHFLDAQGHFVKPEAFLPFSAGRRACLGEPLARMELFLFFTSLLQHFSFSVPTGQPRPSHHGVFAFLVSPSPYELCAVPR
CYP 3A4, sequence (P08684 whole entry): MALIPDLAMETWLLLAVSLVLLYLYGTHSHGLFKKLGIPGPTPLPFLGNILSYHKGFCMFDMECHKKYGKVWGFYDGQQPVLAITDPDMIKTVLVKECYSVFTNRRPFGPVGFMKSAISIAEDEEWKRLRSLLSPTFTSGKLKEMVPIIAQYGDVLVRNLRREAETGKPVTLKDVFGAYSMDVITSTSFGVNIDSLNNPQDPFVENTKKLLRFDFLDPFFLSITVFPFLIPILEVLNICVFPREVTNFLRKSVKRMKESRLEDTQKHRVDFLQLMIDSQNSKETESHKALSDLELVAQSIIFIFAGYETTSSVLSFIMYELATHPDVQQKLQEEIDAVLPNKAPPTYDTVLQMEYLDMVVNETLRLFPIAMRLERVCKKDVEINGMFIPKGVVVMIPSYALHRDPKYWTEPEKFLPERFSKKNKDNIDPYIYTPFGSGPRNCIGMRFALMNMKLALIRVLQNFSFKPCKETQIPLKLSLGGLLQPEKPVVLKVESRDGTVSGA

As for `Cc1[nH]c(C(=O)C(=O)N[C@@H](C)C(F)(F)F)c(C)c1C(=O)Nc1ccc(F)c(C#N)c1` [Example 1, (S)—N-(3-cyano-4-fluorophenyl)-2,4-dimethyl-5-(2-oxo-2-((1,1,1-trifluoroprop-2-yl)amino)acetyl)-1H-pyrrole-3-carboxamide], the IC50 at CYP 3A4 is greater than 200 µM. Inhibition against CYP 2D6 was half-maximal at 54 µM (IC50). Moreover, the F in data set [1] (SD rats, PO 10 mg/kg vs IV 5 mg/kg) is listed as 100%. Also, the half-life in data set [1] (rat, iv, 5 mg/kg) was 52.8 h. In data set [1] (rat, po, 10 mg/kg), this compound gave a half-life of 45.6 h. In data set [1] (setting [2]), the AUC(0-inf) turned out to be 148 µg·h/mL, the Cmax came out at 3510 ng/mL, the clearance was 0.5 mL/min/kg and the AUC(0-t) is 127 µg·h/mL. The Vd in data set [1] (rat, plasma, SD rats, IV 5 mg/kg, read-out: Vz) is 2.58 L/kg. Also, in data set [1] (setting [3]), the AUC(0-inf) was determined as 284 µg·h/mL, the Cmax is 4110 ng/mL and the AUC(0-t) turned out to be 254 µg·h/mL.
